Test results reported in article PMC9007350, “Aurintricarboxylic acid is a canonical disruptor of the TAZ-TEAD transcriptional complex” (PLoS ONE, 2022).
pIC50, pKd: −log10 of the molar value.

Assays:
[1] = target: T1, YAP/TAZ-binding domain of human TEAD4 (217-434), deacylated (Homo sapiens, UniProt Q15561); assay: Surface plasmon resonance; conditions: one-site binding fit of steady-state response versus concentration; read-out: Kd, affinity between TEAD and ATA
T1 construct: made in house
Method: The YAP/TAZ-binding domain of human TEAD4 (217–434) was deacylated and resuspended in 10 mM acetate buffer pH 5.0. TEAD was immobilized on a CM5 sensor chip (Cytiva, product, BR100530) using the amine coupling kit (Cytiva, product, BR10050) as per manufacturer’s guidelines. Various concentrations of ATA were dissolved in buffer containing 20 mM Tris pH 8.0, 150 mM NaCl, 1.5% DMSO and passed over the reference cell and the cell containing immobilized TEAD, and the resonance responses were recorded.

[2] = tested on: NIH3T3 cells expressing NRAS G12V; assay: Soft agar colony growth assay, NRAS G12V; type: cell-based
Method: Soft agar colony growth assay was performed as previously described. The colonies were counted using Image-Pro Plus 7.0 software (Media Cybernetics). ATA cytotoxicity was assessed using the CyQUANT LDH Cytotoxicity Assay Kit (ThermoFisher) and was performed as per the manufacturer’s protocol.

[3] = target: T2, TAZ-TEAD complex (full-length His-TAZ and FLAG-TEAD4) (Homo sapiens, UniProt Q15561); assay: TAZ-TEAD AlphaLISA assay; type: binding; conditions: 10 nM TAZ, 15 nM TEAD4
T2 construct: human TEAD4 (1–434) (UniProt—Q15561); strep (N, cleaved yes); made in house; host or cells: Escherichia coli BL21(DE3)pLysS
T2 sequence (Q15561 whole entry, one chain of several): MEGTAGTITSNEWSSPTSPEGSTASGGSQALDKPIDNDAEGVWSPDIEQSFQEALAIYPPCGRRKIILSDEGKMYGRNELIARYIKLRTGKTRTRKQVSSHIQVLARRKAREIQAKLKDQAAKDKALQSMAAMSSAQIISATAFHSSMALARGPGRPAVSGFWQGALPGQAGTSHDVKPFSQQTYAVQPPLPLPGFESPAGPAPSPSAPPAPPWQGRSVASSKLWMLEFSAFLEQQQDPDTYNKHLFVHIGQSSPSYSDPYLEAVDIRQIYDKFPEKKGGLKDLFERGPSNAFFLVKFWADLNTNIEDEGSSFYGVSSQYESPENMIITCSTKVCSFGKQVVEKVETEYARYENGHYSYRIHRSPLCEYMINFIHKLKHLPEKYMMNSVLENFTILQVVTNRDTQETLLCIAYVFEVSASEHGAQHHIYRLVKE
From the text: The cDNAs of human TEAD4 (1–434) (UniProt—Q15561) and TAZ (UniProt—Q9GZV5) were codon-optimized according to a proprietary algorithm developed by DAPCEL, Inc, synthesized, and inserted into the pET-3a vector between restriction sites NdeI and BamHI (GenScript). The final construct contained a N-terminal strep-TEV-FLAG tag for TEAD4, a 6x His tag at the N-terminus and a strep tag at the C-terminus of TAZ (GenScript).
Full-length TAZ and TEAD proteins were used in this assay. The codon-optimized cDNAs yielded sufficient protein amounts to carry out the high-throughput screen (S1A Fig).
Purified full-length His-TAZ and FLAG-TEAD4 proteins were mixed with nickel chelate AlphaLISA Acceptor Beads and anti-FLAG Alpha Donor Beads (PerkinElmer) in alpha assay buffer (10mM Tris pH 8.0, 150mM NaCl, 0.1% BSA, 0.01% Tween 20, 10 mM DTT). To determine the optimum protein concentration that produced the highest total signal intensity, His-TAZ was used at a concentration range of 0 nM to 20 nM and FLAG-TEAD4 at 0.1 nM to 1000 nM. The maximal signal occurred at 10 nM TAZ and 15 nM TEAD4 (S1B Fig). Then, compounds from the library plates were added at a final concentration of 10 μM. The mixtures were incubated in the dark for 2h at room temperature and emission at 615 nm was measured using the alpha-compatible EnSpire (PerkinElmer) and Synergy Neo2 (BioTek) multimode plate readers. […]

T1 sequence (Q15561 217-434): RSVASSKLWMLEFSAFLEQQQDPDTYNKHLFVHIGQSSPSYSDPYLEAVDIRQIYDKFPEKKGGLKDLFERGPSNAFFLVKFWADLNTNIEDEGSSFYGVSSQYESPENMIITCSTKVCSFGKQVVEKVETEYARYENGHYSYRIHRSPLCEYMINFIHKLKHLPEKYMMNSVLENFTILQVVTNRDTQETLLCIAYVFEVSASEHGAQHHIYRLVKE

For `O=C(O)C1=CC(=C(c2ccc(O)c(C(=O)O)c2)c2ccc(O)c(C(=O)O)c2)C=CC1=O` [ATA, aurintricarboxylic acid], the pKd [1] was 5.52, the “NRAS G12V-induced soft agar growth” value [2] was “unaffected” and the pIC50 [3] was 7.46.
